From patent US20220378923A1, “BET DEGRADER” (KYOWA KIRIN CO., LTD., priority 2019, published 2022) come the findings set out here.

Each structure is given as a SMILES string.

The first assay concerns SU-DHL-4 cells. As to the kind of experiment: Inhibitory effect on cell viability in SU-DHL-4 cell line (Test Example 1). It counts as cell-based, human. The settings on record: Homo sapiens; SU-DHL-4 cells, 72 hours, Cell Counting Kit-8; concentration showing 90% inhibition of cell viability; read-out: SU-DHL-4 Cell Viability Inhibition Rate IC90. The method, then: SU-DHL-4 cells (Code No. ACC 495, Deutsche Sammlung von Mikroorganismen and Zellkulturen GmbH; DSMZ) were cultured at 37° C. using a carbon dioxide incubator (95% air, 5% CO2) in RPMI1640 medium (Code No. 11875-093, Thermo Fisher Scientific) in which inactivated fetal bovine serum (FBS: Code No. 10099-148, Thermo Fisher Scientific) in an amount to give a final concentration of 10 vol % and penicillin/streptomycin solution (PS: […] The cells were passaged twice a week at a volume of 20-40 mL so as to maintain a cell concentration of 1×10^6 cells/mL or less. […] After seeding, the cells were precultured at 37° C. in a carbon dioxide gas incubator for 18 to 25 hours. […] At this time, the final concentration of DMSO was adjusted to be 0.1 vol %. After adding the test compound, the cells were cultured at 37° C. in a carbon dioxide gas incubator for 72 hours. Next, 0.020 mL of Cell Counting Kit-8 (Code No. CK04, DOJINDO) solution diluted 2-fold or 4-fold with phosphate buffered saline (PBS) was added to each well. Color reaction was carried out in a carbon dioxide gas incubator at 37° C. for 2 to 3 hours, and the absorbance at a wavelength of 450 nm was measured using SpectraMax 340PC (Molecular Devices). […] Absorbance of a well containing test compound • B: Absorbance of a well without addition of cells • C: Absorbance of a well without addition of test compound
On the technique in general: Tetrazolium assays rely on reduction of a dye to a coloured formazan, in cell work by metabolically active cells.
In the case of `CCC(=O)N1c2ccccc2[C@H](Nc2ccc(NC(=O)CNC(=O)Nc3ccc(N[C@@H]4C[C@H](C)N(C(=O)CC)c5ccccc54)cc3)cc2)C[C@@H]1C` (relative stereo) [Compound 6j, N-(4-(((2S*,4R*)-2-Methyl-1-propionyl-1,2,3,4-tetrahydroquinolin-4-yl)amino)phenyl)-2-(3-(4-(((2S*,4R*)-2-methyl-1-propionyl-1,2,3,4-tetrahydroquinolin-4-yl)amino)phenyl)ureido)acetamide], the IC90 turned out to be 0.13 nM.

Staying with this assay, now noted: SU-DHL-4 cells, 72 hours, Cell Counting Kit-8; concentration showing 90% inhibition of cell viability; read-out: SU-DHL-4 Cell Viability Inhibition Rate IC90.
On to `CCC(=O)N1c2ccccc2[C@H](Nc2ccc(C(=O)NCCCNC(=O)c3ccc(C(O)c4cc(O)cc(-c5c(C)noc5C)c4)cc3)cc2)C[C@@H]1C` (relative stereo) [Compound 1d, 4-{[3-(3,5-Dimethylisoxazol-4-yl)-5-hydroxyphenyl](hydroxy)methyl}-N-[3-(4-{[(2S*,4R*)-2-methyl-1-propionyl-1,2,3,4-tetrahydroquinolin-4-yl]amino}benzamide)propyl]benzamide], for which the IC90 is 38 nM.
As for `CCC(=O)N1c2ccccc2[C@H](Nc2ccc(C(=O)NCCCNC(=O)c3ccc(Cn4c(CC)cc5c4CCCC5=O)cc3)cc2)C[C@@H]1C` (relative stereo) [Compound 1e, 4-[(2-Ethyl-4-oxo-4,5,6,7-tetrahydro-1H-indol-1-yl)methyl]-N-[3-(4-{[(2S*,4R*)-2-methyl-1-propionyl-1,2,3,4-tetrahydroquinolin-4-yl]amino}benzamide)propyl]benzamide], the IC90 worked out at 39.8 nM.
`CCC(=O)N1c2ccccc2[C@H](Nc2ccc(C(=O)NCCCNC(=O)c3ccc(C4=NCc5nnc(C)n5-c5sc(C)c(C)c54)cc3)cc2)C[C@@H]1C` (relative stereo) [Compound 1f, 4-{[(2S*,4R*)-2-Methyl-1-propionyl-1,2,3,4-tetrahydroquinolin-4-yl]amino}-N-{3-[4-(2,3,9-trimethyl-6H-thieno[3,2-f][1,2,4]triazolo[4,3-a][1,4]diazepin-4-yl)benzamide]propyl}benzamide]: the IC90 turned out to be 4.78 nM.
`CCC(=O)N1c2ccccc2[C@H](Nc2ccc(NC(=O)c3cccc(NC(=O)c4ccc(N[C@@H]5C[C@H](C)N(C(=O)CC)c6ccccc65)cc4)c3)cc2)C[C@@H]1C` (relative stereo) [Compound 2j, 3-(4-{[(2S,4R)-2-Methyl-1-propionyl-1,2,3,4-tetrahydroquinolin-4-yl]amino}benzamide)-N-(4-{[(2S*,4R*)-2-methyl-1-propionyl-1,2,3,4-tetrahydroquinolin-4-yl]amino}phenyl)benzamide]: the IC90 was determined as 0.36 nM.
In the case of `CCC(=O)N1c2ccccc2[C@H](Nc2ccc(-c3cn4c(n3)CN(C(=O)C3CCC(N[C@@H]5C[C@H](C)N(C(=O)CC)c6ccccc65)CC3)CC4)cc2)C[C@@H]1C` (relative stereo) [Compound 7b, 1-((2S*,4R*)-2-Methyl-4-(((1R,4r)-4-(2-(4-(((2S,4R)-2-methyl-1-propionyl-1,2,3,4-tetrahydroquinolin-4-yl)amino)phenyl)-5,6,7,8-tetrahydroimidazo[1,2-a]pyrazine-7-carbonyl)cyclohexyl)amino)-3,4-dihydroquinolin-1(2H)-yl)propan-1-one], the IC90 amounted to 1.51 nM.
With `CCC(=O)N1c2ccccc2[C@H](Nc2ccc(NC(=O)CNC(=S)OC3CCC(N[C@@H]4C[C@H](C)N(C(=O)CC)c5ccccc54)CC3)cc2)C[C@@H]1C` (relative stereo) [Compound 7d, 0-((1R,4R)-4-(((2S*,4R*)-2-Methyl-1-propionyl-1,2,3,4-tetrahydroquinolin-4-yl)amino)cyclohexyl)(2-((4-(((2S,4R)-2-methyl-1-propionyl-1,2,3,4-tetrahydroquinolin-4-yl)amino)phenyl)amino)-2-oxoethyl)carbamothioate], the IC90 was 25.9 nM.
As for `CCC(=O)N1c2ccccc2[C@H](Nc2ccc(NC(=O)CNC(=O)O[C@H]3CC[C@H](N[C@@H]4C[C@H](C)N(C(=O)CC)c5ccccc54)CC3)cc2)C[C@@H]1C` (relative stereo) [Compound 7e, (1R,4R)-4-(((2S*,4R*)-2-Methyl-1-propionyl-1,2,3,4-tetrahydroquinolin-4-yl)amino)cyclohexyl (2-((4-(((2S,4R)-2-methyl-1-propionyl-1,2,3,4-tetrahydroquinolin-4-yl)amino)phenyl)amino)-2-oxoethyl)carbamate], the IC90 came out at 20.4 nM.
Consider `CCC(=O)N1c2ccccc2[C@H](Nc2ccc(C(=O)c3cnc4n3CCN(C(=O)C3CCC(N[C@@H]5C[C@H](C)N(C(=O)CC)c6ccccc65)CC3)C4)cc2)C[C@@H]1C` (relative stereo) [Compound 7i, 1-((2S*,4R*)-2-Methyl-4-(((1r,4R)-4-(3-(4-(((2S,4R)-2-methyl-1-propionyl-1,2,3,4-tetrahydroquinolin-4-yl)amino)benzoyl)-5,6,7,8-tetrahydroimidazo[1,2-a]pyrazine-7-carbonyl)cyclohexyl)amino)-3,4-dihydroquinolin-1(2H)-yl)propan-1-one], for which the IC90 is 0.33 nM.
`CCC(=O)N1c2ccccc2[C@H](Nc2ccc(NC(=O)CNC(=O)C3CCC(N[C@@H]4C[C@H](C)N(C(=O)CC)c5ccccc54)CC3)cc2)C[C@@H]1C` (relative stereo) [Compound 7k, (1R,4R)-4-(((2S*,4R*)-2-Methyl-1-propionyl-1,2,3,4-tetrahydroquinolin-4-yl)amino)-N-(2-((4-(((2S,4R)-2-methyl-1-propionyl-1,2,3,4-tetrahydroquinolin-4-yl)amino)phenyl)amino)-2-oxoethyl)cyclohexane-1-carboxamide]: the IC90 worked out at 0.62 nM.
`CCC(=O)N1c2ccccc2[C@H](Nc2ccc(Cc3cnc4n3CCN(C(=O)C3CCC(N[C@@H]5C[C@H](C)N(C(=O)CC)c6ccccc65)CC3)C4)cc2)C[C@@H]1C` (relative stereo) [Compound 7l, 1-((2S*,4R*)-2-Methyl-4-(((1r,4R)-4-(3-(4-(((2S,4R)-2-methyl-1-propionyl-1,2,3,4-tetrahydroquinolin-4-yl)amino)benzyl)-5,6,7,8-tetrahydroimidazo[1,2-a]pyrazine-7-carbonyl)cyclohexyl)amino)-3,4-dihydroquinolin-1(2H)-yl)propan-1-one]: the IC90 was 0.28 nM.
Regarding `CCC(=O)N1c2ccccc2[C@H](Nc2ccc(C(=O)NCCCNC(=O)C3CCC(N[C@@H]4C[C@H](C)N(C(=O)CC)c5ccccc54)CC3)cc2)C[C@@H]1C` (relative stereo) [Compound 7m, 4-(((2S,4R)-2-Methyl-1-propionyl-1,2,3,4-tetrahydroquinolin-4-yl)amino)-N-(3-((1R,4r)-4-(((2S*,4R*)-2-methyl-1-propionyl-1,2,3,4-tetrahydroquinolin-4-yl)amino)cyclohexane-1-carboxamide)propyl)benzamide], the IC90 was found to be 20.3 nM.
Consider `CCC(=O)N1c2ccccc2[C@H](Nc2ccc(C(=O)NC3CN(C(=O)C4CCC(N[C@@H]5C[C@H](C)N(C(=O)CC)c6ccccc65)CC4)C3)cc2)C[C@@H]1C` (relative stereo) [Compound 7n, 4-(((2S,4R)-2-Methyl-1-propionyl-1,2,3,4-tetrahydroquinolin-4-yl)amino)-N-(1-((1R,4R)-4-(((2S*,4R*)-2-methyl-1-propionyl-1,2,3,4-tetrahydroquinolin-4-yl)amino)cyclohexane-1-carbonyl)azetidin-3-yl)benzamide], for which the IC90 amounted to 13.9 nM.
Turning to `CCC(=O)N1c2ccccc2[C@H](Nc2ccc(C(=O)NCC(=O)CNC(=O)C3CCC(N[C@@H]4C[C@H](C)N(C(=O)CC)c5ccccc54)CC3)cc2)C[C@@H]1C` (relative stereo) [Compound 7r, 4-(((2S,4R)-2-Methyl-1-propionyl-1,2,3,4-tetrahydroquinolin-4-yl)amino)-N-(3-((1R,4r)-4-(((2S*,4R*)-2-methyl-1-propionyl-1,2,3,4-tetrahydroquinolin-4-yl)amino)cyclohexane-1-carboxamide)-2-oxopropyl)benzamide], the IC90 is 0.38 nM.
Regarding `CCC(=O)N1c2ccccc2[C@H](Nc2ccc(-c3cnn(C4CCN(C(=O)C5CCC(N[C@@H]6C[C@H](C)N(C(=O)CC)c7ccccc76)CC5)CC4)c3)cc2)C[C@@H]1C` (relative stereo) [Compound 8d, 1-((2S*,4R*)-2-Methyl-4-(((1r,4R)-4-(4-(4-(4-(((2S,4R)-2-methyl-1-propionyl-1,2,3,4-tetrahydroquinolin-4-yl)amino)phenyl)-1H-pyrazol-1-yl)piperidine-1-carbonyl)cyclohexyl)amino)-3,4-dihydroquinolin-1(2H)-yl)propan-1-one], the IC90 is 0.14 nM.
Consider `CCC(=O)N1c2ccccc2[C@H](Nc2ccc(-c3ccc(CNC(=O)C4CCC(N[C@@H]5C[C@H](C)N(C(=O)CC)c6ccccc65)CC4)s3)cc2)C[C@@H]1C` (relative stereo) [Compound 8e, (1R,4R)-4-(((2S*,4R*)-2-Methyl-1-propionyl-1,2,3,4-tetrahydroquinolin-4-yl)amino)-N-((5-(4-(((2S,4R)-2-methyl-1-propionyl-1,2,3,4-tetrahydroquinolin-4-yl)amino)phenyl)thiophen-2-yl)methyl)cyclohexane-1-carboxamide], for which the IC90 stood at 0.2 nM.

What is called IC90 is the point of the concentration-response curve where the effect stands at 90%.
